# Key:
# [1] = test system: Escherichia coli R^+TEM; experiment: Agar dilution checkerboard growth test (Caseinpepton-Fleischextrakt-Bouillon-Agar, ~3x10^4 CFU/ml, 18 h, 37 °C); type: cell-based
# Experimental: (§1) Ein Caseinpepton-Fleischextrakt-Bouillon-Agar mit einem Gehalt der angegebenen Menge der nachstehend angegebenen Substanzen A und B wird mit dem Testbakterium geimpft (~3x10^4CFU/ml). Nach der Inkubation während 18 Stunden bei 37 °C wird der Wuchszustand der Testbakterien untersucht. Die Ergebnisse sind in den Tabellen zusammengestellt. In jeder Tabelle bedeutet (+), daß das Testbakterium wächst, und (-) bedeutet, daß das Testbakterium nicht wächst. Man erkennt aus diesen Tabellen, daß die Kombination von D-α-[3-(2-p-Aminosulfonylanilino-4-hydroxy-5-pyrimidinyl)-ureido]-p-hydroxy-benzylpenicillin-Natrium = A bzw.
# [2] = test system: Kl. pneumoniae 1082 E; experiment: as above; type: cell-based
# Experimental: as §1
structure (smiles),measurement,setting,value
"CC1(C)S[C@@H]2[C@H](NC(=O)[C@H](NC(=O)Nc3cnc(Nc4ccc(S(N)(=O)=O)cc4)nc3O)c3ccc(O)cc3)C(=O)N2[C@H]1C(=O)O [Substanz A, D-α-[3-(2-p-Aminosulfonylanilino-4-hydroxy-5-pyrimidinyl)-ureido]-p-hydroxy-benzylpenicillin-Natrium]",Wuchszustand der Testbakterien,"[1]; C 0 µg/ml, A 0,5 µg/ml",+
same,Wuchszustand der Testbakterien,"[1]; C 0 µg/ml, A 1 µg/ml",+
same,Wuchszustand der Testbakterien,"[1]; C 0 µg/ml, A 2 µg/ml",+
same,Wuchszustand der Testbakterien,"[1]; C 0 µg/ml, A 4 µg/ml",+
same,Wuchszustand der Testbakterien,"[1]; C 0 µg/ml, A 8 µg/ml",+
same,Wuchszustand der Testbakterien,"[1]; C 0 µg/ml, A 16 µg/ml",+
same,Wuchszustand der Testbakterien,"[1]; C 0 µg/ml, A 32 µg/ml",+
same,Wuchszustand der Testbakterien,"[1]; C 0 µg/ml, A 64 µg/ml",+
same,Wuchszustand der Testbakterien,"[1]; C 0 µg/ml, A 128 µg/ml",+
same,Wuchszustand der Testbakterien,"[2]; C 0 µg/ml, A 0,5 µg/ml",+
same,Wuchszustand der Testbakterien,"[2]; C 0 µg/ml, A 0,25 µg/ml",+
same,Wuchszustand der Testbakterien,"[2]; C 0 µg/ml, A 1 µg/ml",+
same,Wuchszustand der Testbakterien,"[2]; C 0 µg/ml, A 2 µg/ml",+
same,Wuchszustand der Testbakterien,"[2]; C 0 µg/ml, A 4 µg/ml",+
same,Wuchszustand der Testbakterien,"[2]; C 0 µg/ml, A 8 µg/ml",+
same,Wuchszustand der Testbakterien,"[2]; C 0 µg/ml, A 16 µg/ml",+
same,Wuchszustand der Testbakterien,"[2]; C 0 µg/ml, A 32 µg/ml",+
same,Wuchszustand der Testbakterien,"[2]; C 0 µg/ml, A 64 µg/ml",+
Cn1nnnc1SCC1=C(C(=O)O)N2C(=O)[C@@H](NC(=O)[C@H](NC(=O)Nc3cnc(Nc4ccc(S(N)(=O)=O)cc4)nc3O)c3ccc(O)cc3)[C@H]2SC1 [Substanz B],Wuchszustand der Testbakterien,"[1]; C 0 µg/ml, B 0,5 µg/ml",+
same,Wuchszustand der Testbakterien,"[1]; C 0 µg/ml, B 0,06 µg/ml",+
same,Wuchszustand der Testbakterien,"[1]; C 0 µg/ml, B 0,25 µg/ml",+
same,Wuchszustand der Testbakterien,"[1]; C 0 µg/ml, B 1 µg/ml",+
same,Wuchszustand der Testbakterien,"[1]; C 0 µg/ml, B 2 µg/ml",+
same,Wuchszustand der Testbakterien,"[1]; C 0 µg/ml, B 4 µg/ml",+
same,Wuchszustand der Testbakterien,"[1]; C 0 µg/ml, B 8 µg/ml",-
same,Wuchszustand der Testbakterien,"[1]; C 0 µg/ml, B 0,125 µg/ml",+
same,Wuchszustand der Testbakterien,"[2]; C 0 µg/ml, B 0,5 µg/ml",+
same,Wuchszustand der Testbakterien,"[2]; C 0 µg/ml, B 0,25 µg/ml",+
same,Wuchszustand der Testbakterien,"[2]; C 0 µg/ml, B 1 µg/ml",+
same,Wuchszustand der Testbakterien,"[2]; C 0 µg/ml, B 2 µg/ml",+
same,Wuchszustand der Testbakterien,"[2]; C 0 µg/ml, B 4 µg/ml",+
same,Wuchszustand der Testbakterien,"[2]; C 0 µg/ml, B 8 µg/ml",+
same,Wuchszustand der Testbakterien,"[2]; C 0 µg/ml, B 16 µg/ml",+
same,Wuchszustand der Testbakterien,"[2]; C 0 µg/ml, B 32 µg/ml",+
same,Wuchszustand der Testbakterien,"[2]; C 0 µg/ml, B 64 µg/ml",+
"O=C(O)[C@H]1/C(=C/CO)O[C@@H]2CC(=O)N21 [Substanz C, Lithium-Z-(2R,5R)-3-(ß-hydroxyäthyliden)-7-oxo-4-oxa-1-aza-bicyclo[3,2,0]-heptan-2-carboxylat, reference compound]",Wuchszustand der Testbakterien,"[1]; C 0,5 µg/ml, B 0 µg/ml",+
same,Wuchszustand der Testbakterien,"[1]; C 0,25 µg/ml, B 0 µg/ml",+
same,Wuchszustand der Testbakterien,"[1]; C 1 µg/ml, A 0 µg/ml",+
same,Wuchszustand der Testbakterien,"[1]; C 1 µg/ml, B 0 µg/ml",+
same,Wuchszustand der Testbakterien,"[1]; C 2 µg/ml, A 0 µg/ml",+
same,Wuchszustand der Testbakterien,"[1]; C 2 µg/ml, B 0 µg/ml",+
same,Wuchszustand der Testbakterien,"[1]; C 4 µg/ml, A 0 µg/ml",+
same,Wuchszustand der Testbakterien,"[1]; C 4 µg/ml, B 0 µg/ml",+
same,Wuchszustand der Testbakterien,"[1]; C 8 µg/ml, A 0 µg/ml",+
same,Wuchszustand der Testbakterien,"[1]; C 8 µg/ml, B 0 µg/ml",+
same,Wuchszustand der Testbakterien,"[1]; C 16 µg/ml, A 0 µg/ml",+
same,Wuchszustand der Testbakterien,"[1]; C 16 µg/ml, B 0 µg/ml",+
same,Wuchszustand der Testbakterien,"[1]; C 32 µg/ml, A 0 µg/ml",-
same,Wuchszustand der Testbakterien,"[1]; C 32 µg/ml, B 0 µg/ml",-
same,Wuchszustand der Testbakterien,"[2]; C 1 µg/ml, A 0 µg/ml",+
same,Wuchszustand der Testbakterien,"[2]; C 1 µg/ml, B 0 µg/ml",+
same,Wuchszustand der Testbakterien,"[2]; C 2 µg/ml, A 0 µg/ml",+
same,Wuchszustand der Testbakterien,"[2]; C 2 µg/ml, B 0 µg/ml",+
same,Wuchszustand der Testbakterien,"[2]; C 4 µg/ml, A 0 µg/ml",+
same,Wuchszustand der Testbakterien,"[2]; C 4 µg/ml, B 0 µg/ml",+
same,Wuchszustand der Testbakterien,"[2]; C 8 µg/ml, A 0 µg/ml",+
same,Wuchszustand der Testbakterien,"[2]; C 8 µg/ml, B 0 µg/ml",+
same,Wuchszustand der Testbakterien,"[2]; C 16 µg/ml, A 0 µg/ml",+
same,Wuchszustand der Testbakterien,"[2]; C 16 µg/ml, B 0 µg/ml",+
same,Wuchszustand der Testbakterien,"[2]; C 32 µg/ml, A 0 µg/ml",+
same,Wuchszustand der Testbakterien,"[2]; C 32 µg/ml, B 0 µg/ml",+
same,Wuchszustand der Testbakterien,"[2]; C 64 µg/ml, A 0 µg/ml",-
same,Wuchszustand der Testbakterien,"[2]; C 64 µg/ml, B 0 µg/ml",-

# Reference: patent EP0050253A1, “Antibiotic pharmaceutical composition” (priority 1980, dated 1982)
